Measured values as given in patent publication US20050004134A1, “Thiazole derivative and pharmaceutical use thereof” (priority 2001, published 2005).

Tests used:
human A2a receptor = human A2a receptor (Homo sapiens, UniProt P29274); experiment: Adenosine antagonistic activity, radioligand binding with [3H]CGS 21680; conditions: [3H]CGS 21680, 20 nM
Protocol: (§1) Test 1: Adenosine Antagonistic Activity
(§2) The adenosine antagonistic activity [Ki(nM)] of the test compound was examined by radioligand binding techniques using 8-cyclopentyl-1,3-dipropylxanthine, [dipropyl-2,3^−3H(N)] ([3H]DPCPX, 4.5 nM) for human A1 receptor and [3H]CGS 21680 (20 nM) for human A2a receptor.

human A1 receptor = target: T1, human A1 receptor (Homo sapiens, UniProt P30542); experiment: Adenosine antagonistic activity, radioligand binding with [3H]DPCPX; conditions: 4.5 nM
T1 sequence (P30542 1-326): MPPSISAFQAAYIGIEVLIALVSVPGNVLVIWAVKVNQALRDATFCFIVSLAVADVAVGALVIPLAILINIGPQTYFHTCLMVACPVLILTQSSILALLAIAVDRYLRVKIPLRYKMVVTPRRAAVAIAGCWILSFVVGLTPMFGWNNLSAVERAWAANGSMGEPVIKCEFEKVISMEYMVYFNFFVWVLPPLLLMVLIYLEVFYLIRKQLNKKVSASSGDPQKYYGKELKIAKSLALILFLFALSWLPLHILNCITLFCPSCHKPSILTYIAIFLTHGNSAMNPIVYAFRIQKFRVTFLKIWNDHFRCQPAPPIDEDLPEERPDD
Protocol: as §1, §2

ddY mice = experiment: Anticatalepsy activity in mouse (haloperidol-induced catalepsy); type: in vivo; conditions: 3.2 mg/kg orally, ddY mice (n=7); haloperidol 0.32 mg/kg i.p. 30 min after compound; measured 30 min after injection, bar test up to 30 sec
Protocol: Test 2: Anticatalepsy Activity in Mouse
The test compound (3.2 mg/kg) was administered orally with ddY mice(n=7). Then, haloperidol (0.32 mg/kg) was injected intraperitoneally 30 min. after the administration of the compound. Thirty minutes after the injection, the cataleptic responses of mice were measured. The forelimbs of each mouse were placed on a 3 cm high, 3 mm wide horizontal bar, and the duration of cataleptic posture was measured for up to 30 sec.

Chain of human A2a receptor (P29274 whole entry): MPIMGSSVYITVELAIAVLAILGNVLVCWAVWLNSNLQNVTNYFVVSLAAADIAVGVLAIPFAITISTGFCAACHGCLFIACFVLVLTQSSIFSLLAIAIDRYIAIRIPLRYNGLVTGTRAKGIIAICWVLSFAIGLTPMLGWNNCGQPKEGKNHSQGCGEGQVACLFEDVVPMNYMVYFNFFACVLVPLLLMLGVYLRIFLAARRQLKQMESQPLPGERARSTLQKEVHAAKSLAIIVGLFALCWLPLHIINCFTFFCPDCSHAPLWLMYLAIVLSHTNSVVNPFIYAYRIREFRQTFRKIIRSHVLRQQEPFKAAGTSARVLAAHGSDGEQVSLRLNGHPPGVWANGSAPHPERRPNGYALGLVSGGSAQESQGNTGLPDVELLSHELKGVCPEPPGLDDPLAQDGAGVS

`CCCCCC(=O)Nc1nc(-c2ccccc2)c(-c2ccc(=O)n(C(C)C)n2)s1` [Example 3, N-[5-(1-Isopropyl-6-oxo-1,6-dihydro-3-pyridazinyl)-4-phenyl-1,3-thiazol-2-yl]hexanamide] showed a melting point of 129 to 132 °C, a Ki (human A2a receptor) of 1.46 nM and a Ki (human A1 receptor) of 0.27 nM. The “Manifestation rate of catalepsy (number of mouse)” value (shortened to “Manifestation rate of catalepsy”) (ddY mice) was 0/7.

In the case of `COc1ccc(CC(=O)Nc2nc(-c3ccccc3)c(-c3ccc(=O)n(C(C)C)n3)s2)cc1` [Example 9, N-[5-(1-Isopropyl-6-oxo-1,6-dihydro-3-pyridazinyl)-4-phenyl-1,3-thiazol-2-yl]-2-(4-methoxyphenyl)acetamide], the melting point is reported as 188 to 190 °C, the Ki (human A2a receptor) is reported as 1.22 nM and the Ki (human A1 receptor) is reported as 0.28 nM. The “Manifestation rate of catalepsy” value (ddY mice) was 0/7.

`Cc1cccc(NC(=O)Nc2nc(-c3ccccc3)c(-c3ccc(=O)n(C(C)C)n3)s2)c1` [Example 10, N-[5-(1-Isopropyl-6-oxo-1,6-dihydro-3-pyridazinyl)-4-phenyl-1,3-thiazol-2-yl]-N′-(3-methylphenyl)urea] gave a melting point of 242 to 243 °C, a Ki (human A2a receptor) of 3.08 nM and a Ki (human A1 receptor) of 0.38 nM.

With `CNc1nc(-c2ccccc2)c(-c2ccc(=O)n(C(C)C)n2)s1` [Example 15, 2-Isopropyl-6-[2-(methylamino)-4-phenyl-1,3-thiazol-5-yl]-3(2H)-pyridazinone] the melting point was 234 to 236 °C, the Ki (human A2a receptor) was 1.63 nM and the Ki (human A1 receptor) was 0.12 nM. The “Manifestation rate of catalepsy” value (ddY mice) was 0/7.

Work on `CC(C)n1nc(-c2sc(NC(=O)c3ccccc3)nc2-c2ccc(F)cc2)ccc1=O` [Example 78, N-[4-(4-Fluorophenyl)-5-(1-isopropyl-6-oxo-1,6-dihydro-3-pyridazinyl)-1,3-thiazol-2-yl]-benzamide] yielded a melting point of 228 to 230 °C, a Ki (human A2a receptor) of 1.23 nM and a Ki (human A1 receptor) of 0.45 nM. For the same compound, the “Manifestation rate of catalepsy” value (ddY mice) was 0/7.

`CC(C)n1nc(-c2sc(NC(=O)CNCc3ccncc3)nc2-c2ccccc2)ccc1=O` [Example 100, N-[5-(1-isopropyl-6-oxo-1,6-dihydro-3-pyridazinyl)-4-phenyl-1,3-thiazol-2-yl]-2-[(4-pyridinylmethyl)amino]acetamide] gave a melting point of 187 to 188 °C, a Ki (human A2a receptor) of 1.22 nM and a Ki (human A1 receptor) of 0.61 nM. For the same compound, the “Manifestation rate of catalepsy” value (ddY mice) was 0/7.

`CCNC(=O)c1nc(-c2ccccc2)c(-c2ccc(=O)n(C(C)C)n2)s1` [Example 214, N-ethyl-5-(1-isopropyl-6-oxo-1,6-dihydro-3-pyridazinyl)-4-phenyl-1,3-thiazole-2-carboxamide] gave a melting point of 172 to 174 °C, a Ki (human A2a receptor) of 1.52 nM and a Ki (human A1 receptor) of 1.14 nM. The “Manifestation rate of catalepsy” value (ddY mice) was 0/7.

`CC(C)n1nc(-c2sc(C(=O)NCc3ccncc3)nc2-c2ccccc2)ccc1=O` [Example 233, 5-(1-Isopropyl-6-oxo-1,6-dihydro-3-pyridazinyl)-4-phenyl-N-(4-pyridinylmethyl)-1,3-thiazole-2-carboxamide] gave a melting point of 192 to 193 °C, a Ki (human A2a receptor) of 1.14 nM and a Ki (human A1 receptor) of 1.03 nM. For the same compound, the “Manifestation rate of catalepsy” value (ddY mice) was 0/7.
